Converted amounts (≈) assume the structure as drawn. Read-outs that look alike come from different tables or passages of the source. Each block holds one molecule with its values, some of them ahead of it. Peptide text beside a SMILES is read from it. * marks the point of attachment. Acm = CC(=O)NC*
Experiments:
[1] = tested on: Staphylococcus aureus ATCC 25923; assay type: cell-based
Method: (§1) The bacterial strains used were: Escherichia coli ATCC 25922 and Staphylococcus aureus ATCC 25923. All strains were stored at −70° C. The bacteria were grown in 2% Bacto Peptone water (Difco 1807-17-4). All tests were performed with bacteria in mid-logarithmic growth phase. Determination of the minimum inhibitory concentration (MIC) of the peptides for bacterial strains were performed in 1% Bacto Peptone water. A standard microdilution technique with an inoculum of 2×10^6 CFU/ml was used. All assays were performed in triplets. Since the peptides are positively charged and therefore could adhere to the plastic wells, we controlled the actual concentration of the peptides in the solution by HPLC. There was no difference between the concentration of the peptides before or after adding the solution to the plastic wells.

[2] = tested on: Escherichia coli ATCC 25922; assay type: cell-based
Method: as §1

SMILES: CSCC[C@H](NC(=O)[C@H](CCCNC(=N)N)NC(=O)[C@H](Cc1c[nH]c2ccccc12)NC(=O)[C@H](CCC(N)=O)NC(=O)[C@H](Cc1c[nH]c2ccccc12)NC(=O)[C@H](CCCNC(=N)N)NC(=O)[C@H](Cc1ccccc1)NC(=O)[C@H](CSCNC(C)=O)NC(=O)[C@H](CCCCN)NC(=O)[C@@H](N)CCCCN)C(=O)N[C@@H](CCCCN)C(=O)N[C@@H](CCCCN)C(=O)N[C@@H](CC(C)C)C(=O)NCC(=O)N[C@@H](C)C(=O)O [LFB F4K1] (H-KKC(Acm)FRWQWRMKKLGA-OH; N-terminus assumed)
- MIC S. aureus ATCC 25923 ([1]; ATCC 25923): 200 µg/mL
- MIC S. aureus ATCC 25923 ([1]; Table 1, value in brackets): 100 µM
- MIC S. aureus ([1]; Table 12): 200 µg/mL (≈ 98.2 µM)
- MIC E. coli ATCC 25922 ([2]; ATCC 25922): 20 µg/mL
- MIC E. coli ATCC 25922 ([2]; Table 1, value in brackets): 10 µM
- MIC E. coli ([2]; Table 12): 20 µg/mL (≈ 9.82 µM)

SMILES: CSCC[C@H](NC(=O)[C@H](CCCNC(=N)N)NC(=O)[C@H](Cc1c[nH]c2ccccc12)NC(=O)[C@H](CCC(N)=O)NC(=O)[C@H](Cc1c[nH]c2ccccc12)NC(=O)[C@H](CCCNC(=N)N)NC(=O)[C@H](CCCNC(=N)N)NC(=O)[C@H](CSCNC(C)=O)NC(=O)[C@H](CCCCN)NC(=O)[C@@H](N)CCCCN)C(=O)N[C@@H](CCCCN)C(=O)N[C@@H](CCCCN)C(=O)N[C@@H](CC(C)C)C(=O)NCC(=O)N[C@@H](C)C(=O)O [LFB K1] (H-KKC(Acm)RRWQWRMKKLGA-OH; N-terminus assumed)
- MIC S. aureus ATCC 25923 ([1]; ATCC 25923): 100 µg/mL
- MIC S. aureus ATCC 25923 ([1]; Table 1, value in brackets): 50 µM
- MIC S. aureus ([1]; Table 12): 100 µg/mL (≈ 48.9 µM)
- MIC E. coli ATCC 25922 ([2]; ATCC 25922): 60 µg/mL
- MIC E. coli ATCC 25922 ([2]; Table 1, value in brackets): 30 µM
- MIC E. coli ([2]; Table 12): 60 µg/mL (≈ 29.3 µM)

SMILES: CSCC[C@H](NC(=O)[C@H](CCCNC(=N)N)NC(=O)[C@H](Cc1c[nH]c2ccccc12)NC(=O)[C@H](CCC(N)=O)NC(=O)[C@H](Cc1c[nH]c2ccccc12)NC(=O)[C@H](CCC(N)=O)NC(=O)[C@H](Cc1ccc(O)cc1)NC(=O)[C@H](CSCNC(C)=O)NC(=O)[C@H](CCCCN)NC(=O)[C@@H](N)CO)C(=O)N[C@@H](CCCNC(=N)N)C(=O)N[C@@H](CCCCN)C(=O)N[C@@H](CC(C)C)C(=O)NCC(=O)N[C@@H](C)C(=O)O [LFGW8, H2N-Ser-Lys-Cys-Tyr-Gln-Trp-Gln-Trp-Arg-Met-Arg-Lys-Leu-Gly-Ala-COOH] (H-SKC(Acm)YQWQWRMRKLGA-OH)
- MIC S. aureus ([1]; Table 4, unit assumed): > 1000 µg/mL
- MIC E. coli ([2]; Table 4): 500 µg/mL (≈ 248 µM)

SMILES: CSCC[C@H](NC(=O)[C@H](CC(N)=O)NC(=O)[C@H](Cc1c[nH]c2ccccc12)NC(=O)[C@H](CCC(N)=O)NC(=O)[C@H](Cc1c[nH]c2ccccc12)NC(=O)[C@H](CCC(N)=O)NC(=O)[C@H](Cc1ccccc1)NC(=O)[C@H](CSCNC(C)=O)NC(=O)[C@H](CCCCN)NC(=O)[C@@H](N)[C@@H](C)O)C(=O)N[C@@H](CCCNC(=N)N)C(=O)N[C@@H](CCCCN)C(=O)N[C@H](C(=O)N[C@@H](CCCNC(=N)N)C(=O)NCC(=O)O)C(C)C [LFHW8, H2N-Thr-Lys-Cys-Phe-Gln-Trp-Gln-Trp-Asn-Met-Arg-Lys-Val-Arg-Gly-COOH] (H-TKC(Acm)FQWQWNMRKVRG-OH)
- MIC S. aureus ([1]; Table 4, unit assumed): > 1000 µg/mL
- MIC E. coli ([2]; Table 4): 110 µg/mL (≈ 53.9 µM)

Now from value to molecule:

- MIC S. aureus ([1]; ATCC 25923): 200 µg/mL (≈ 99.5 µM)
- MIC E. coli ([2]; ATCC 25922): 50 µg/mL (≈ 24.9 µM)
SMILES: CSCC[C@H](NC(=O)[C@H](CCCNC(=N)N)NC(=O)[C@H](Cc1c[nH]c2ccccc12)NC(=O)[C@H](CCC(N)=O)NC(=O)[C@H](Cc1c[nH]c2ccccc12)NC(=O)[C@H](CCCNC(=N)N)NC(=O)[C@H](CC(C)C)NC(=O)[C@H](CSCNC(C)=O)NC(=O)[C@H](CCCCN)NC(=O)[C@H](C)N)C(=O)N[C@@H](CCCNC(=N)N)C(=O)N[C@@H](CCCCN)C(=O)N[C@@H](Cc1ccc(O)cc1)C(=O)NCC(=O)NCC(=O)O [LFM A1 R9 W8 Y13] (H-AKC(Acm)LRWQWRMRKYGG-OH; N-terminus and C-terminus assumed)

- MIC S. aureus ([1]; ATCC 25923): >1000 µg/mL
- MIC E. coli ([2]; ATCC 25922): 500 µg/mL (≈ 252 µM)
SMILES: CSCC[C@H](NC(=O)[C@H](CCC(=O)O)NC(=O)[C@H](Cc1c[nH]c2ccccc12)NC(=O)[C@H](CCC(N)=O)NC(=O)[C@H](Cc1c[nH]c2ccccc12)NC(=O)[C@H](CCCNC(=N)N)NC(=O)[C@H](CC(C)C)NC(=O)[C@H](CSCNC(C)=O)NC(=O)[C@H](CCCCN)NC(=O)[C@H](C)N)C(=O)N[C@@H](CCCNC(=N)N)C(=O)N[C@@H](CCCCN)C(=O)N[C@@H](Cc1ccc(O)cc1)C(=O)NCC(=O)NCC(=O)O [LFM A1 W8 Y13] (H-AKC(Acm)LRWQWEMRKYGG-OH; N-terminus and C-terminus assumed)

- MIC S. aureus ([1]; ATCC 25923): >1000 µg/mL
- MIC E. coli ([2]; ATCC 25922): 150 µg/mL (≈ 77.9 µM)
SMILES: CSCC[C@H](NC(=O)[C@H](C)NC(=O)[C@H](Cc1c[nH]c2ccccc12)NC(=O)[C@H](CCC(N)=O)NC(=O)[C@H](Cc1c[nH]c2ccccc12)NC(=O)[C@H](CCCNC(=N)N)NC(=O)[C@H](CC(C)C)NC(=O)[C@H](CSCNC(C)=O)NC(=O)[C@H](CCCCN)NC(=O)[C@H](C)N)C(=O)N[C@@H](CCCNC(=N)N)C(=O)N[C@@H](CCCCN)C(=O)N[C@@H](Cc1ccc(O)cc1)C(=O)NCC(=O)NCC(=O)O [LFM A1, 9 W8 Y13] (H-AKC(Acm)LRWQWAMRKYGG-OH; N-terminus and C-terminus assumed)

- MIC S. aureus ([1]; ATCC 25923): >1000 µg/mL
- MIC E. coli ([2]; ATCC 25922): >1000 µg/mL
SMILES: CSCC[C@H](NC(=O)[C@H](C)NC(=O)[C@H](Cc1c[nH]c2ccccc12)NC(=O)[C@H](CCC(N)=O)NC(=O)[C@H](Cc1c[nH]c2ccccc12)NC(=O)[C@H](CCCNC(=N)N)NC(=O)[C@H](CC(C)C)NC(=O)[C@H](CSCNC(C)=O)NC(=O)[C@H](CCCCN)NC(=O)[C@@H](N)CCC(=O)O)C(=O)N[C@@H](CCCNC(=N)N)C(=O)N[C@@H](CCCCN)C(=O)N[C@@H](Cc1ccc(O)cc1)C(=O)NCC(=O)NCC(=O)O [LFM A9 W8 Y13] (H-EKC(Acm)LRWQWAMRKYGG-OH; N-terminus and C-terminus assumed)

- MIC S. aureus ([1]; ATCC 25923): 50 µg/mL (≈ 24.2 µM)
- MIC E. coli ([2]; ATCC 25922): 50 µg/mL (≈ 24.2 µM)
SMILES: CSCC[C@H](NC(=O)[C@H](CCC(=O)O)NC(=O)[C@H](Cc1c[nH]c2ccccc12)NC(=O)[C@H](CCC(N)=O)NC(=O)[C@H](Cc1c[nH]c2ccccc12)NC(=O)[C@H](CCCNC(=N)N)NC(=O)[C@H](CC(C)C)NC(=O)[C@H](CSCNC(C)=O)NC(=O)[C@H](CCCCN)NC(=O)[C@@H](N)CCCNC(=N)N)C(=O)N[C@@H](CCCNC(=N)N)C(=O)N[C@@H](CCCCN)C(=O)N[C@@H](Cc1ccc(O)cc1)C(=O)NCC(=O)NCC(=O)O [LFM R1 W8 Y13] (H-RKC(Acm)LRWQWEMRKYGG-OH; N-terminus and C-terminus assumed)
